Results: patent US10227331B2 (priority 2015, dated 2019)

Key:
[1] = system: P. aeruginosa expressing IMP-1, efflux+ (MB9798); format: cell-based, Pseudomonas aeruginosa; details: for P. aeruginosa expressing IMP-1, efflux+ (MB9798) MITC95: imipenem at 2 μg/mL, in the presence of a class A, C, D serine β-lactamase inhibitor closely related to relebactam; for Efflux ratio: ratio MITC95 PA_9798/MITC95 PA_9799
From the text: (§1) The strain background is Pseudomonas aeruginosa PAO1.

VIM-1 = VIM-1 (Pseudomonas aeruginosa (strain ATCC 15692 / DSM 22644 / CIP 104116 / JCM 14847 / LMG 12228 / 1C / PRS 101 / PAO1), UniProt A0A0F7KYQ8); experiment: biochemical; details: CCF2-FA substrate, 2 hours at 25° C
Experimental: Enzyme Activity: Determination of IC50
The Class B enzyme activities were measured in the presence of the test inhibitor in a fluorescence assay against a commercially available substrate consisting of a cephalosporin core linking 7-hydroxycoumarin to fluorescein (CCF2-FA). […] In a 384-well microplate, the test inhibitor was incubated with the metallo-β-lactamase enzyme and the substrate for 2 hours at 25° C. […] The IC50 value was determined from semi-logarithmic plots of enzyme inhibition versus inhibitor concentration, with a curve generated using a 4-parameter fit.

[2] = system: Klebsiella pneumoniae expressing VIM-1 (IHMA599644); format: cell-based; details: with imipenem 1 μg/ml, 95% inhibition of bacterial growth; for Klebsiella pneumoniae MITC95: VIM-1 (IHMA599644)
Experimental: (§2) Antibiotic Potentiation Activity: Determination of Synergistic Concentration
(§3) The bacterial strains tested included the clinical strains Escherichia coli expressing NDM-1 (CLB30005, CLB30016), Serratia marcescens expressing IMP-1 (CL5741), and Klebsiella pneumoniae expressing VIM-1 (IHMA599644). Inhibitor activity was measured in the presence and absence of imipenem in a 384-well microplate.
(§4) The clinical strains CLB30016, CL5741 and IHMA599644 were grown on trypticase soy agar containing 5% sheep's blood. The bacteria on agar plates were incubated at 35° C. with humidity overnight. The following day, individual colonies from each clinical strain were picked and resuspended in 5 ml saline to attain an OD600 of […], for CLB30016, CL5741 and IHMA599644, respectively. These were further diluted 1:100 into 1.1×CAMHB and used to inoculate the test wells as described below.
(§5) Imipenem in 10 mM 3-(N-morpholino)propanesulfonic acid (MOPS, pH 7) was stored in single use aliquots at −80° C. […] On the day of the assay, 4 μl of antibiotic was added to 45 ul of bacteria followed by 1 μl of test compound and mixed by pipetting and with an orbital shaker. The concentration of antibiotic used in the assay was 1 μg/ml. Microplates were covered and incubated at 35° C. for 22 hours to 24 hours. At the end of the incubation, absorbance was determined using a spectrophotometer.
(§6) For example, in general, the compounds of Examples 1-379 were determined to restore susceptibility to imipenem for one or more of the test organisms at concentrations of 100 μM or less.

[3] = system: Escherichia coli expressing NDM-1 (CLB30005, CLB30016); format: cell-based; details: with imipenem 1 μg/ml, 95% inhibition of bacterial growth; for Escherichia coli MITC95: NDM-1 (CLB30016)
Experimental: as §2, §3, §4, §5, §6

[4] = system: Serratia marcescens expressing IMP-1 (CL5741); format: cell-based; details: with imipenem 1 μg/ml, 95% inhibition of bacterial growth; for Serratia marcescens MITC95: IMP-1 (CL5741)
Experimental: as §2, §3, §4, §5, §6

[5] = system: P. aeruginosa expressing IMP-1, efflux− (MB9799); experiment: Efflux: concentration of MBL inhibitor which restores susceptibility to imipenem; format: cell-based, Pseudomonas aeruginosa; details: imipenem at 2 μg/mL, in the presence of a class A, C, D serine β-lactamase inhibitor closely related to relebactam
From the text: as §1

| SMILES | P. aeruginosa expressing IMP-1, efflux+ (MB9798) MITC95 [1] | Efflux ratio [1] | IC50 (VIM-1) | Klebsiella pneumoniae expressing VIM-1 (IHMA599644) MITC95 [2] | Escherichia coli expressing NDM-1 (CLB30016) MITC95 [3] | Serratia marcescens expressing IMP-1 (CL5741) MITC95 [4] | P. aeruginosa expressing IMP-1, efflux− (MB9799) MITC95 [5] | Klebsiella pneumoniae MITC95 [2] | Escherichia coli MITC95 [3] | Serratia marcescens MITC95 [4] |
| --- | --- | --- | --- | --- | --- | --- | --- | --- | --- | --- |
| NS(=O)(=O)c1c(S(=O)(=O)C2CNC2)ccc(-c2ccc(CO)nc2)c1-c1nnn[nH]1.O=C(O)C(F)(F)F [Example 111, 3-((4-(6-(hydroxymethyl)pyridin-3-yl)-2-sulfamoyl-3-(1H-tetrazol-5-yl)phenyl)sulfonyl)azetidin-1-ium 2,2,2-trifluoroacetate] | 6.25 µM | 4.00 | 960 pM | 6.25 µM | 3.125 µM | 3.125 µM | 1.563 µM | – | – | – |
| NCc1cncc(-c2ccc(S(=O)(=O)C3CNC3)c(S(N)(=O)=O)c2-c2nnn[nH]2)c1.O=C(O)C(F)(F)F [Example 107, 3-((4-(5-(aminomethyl)pyridin-3-yl)-2-sulfamoyl-3-(1H-tetrazol-5-yl)phenyl)sulfonyl)azetidin-1-ium 2,2,2-trifluoroacetate] | 12.5 µM | 4.00 | 28300 pM | 3.125 µM | 1.563 µM | 6.25 µM | 3.125 µM | – | – | – |
| NS(=O)(=O)c1c(S(=O)(=O)C2CNC2)ccc(C2=CC3C=NNC3N=C2)c1-c1nnn[nH]1.O=C(O)C(F)(F)F (centres unmarked) [Example 108, 3-((4-(3a,7a-dihydro-1H-pyrazolo[3,4-b]pyridin-5-yl)-2-sulfamoyl-3-(1H-tetrazol-5-yl)phenyl)sulfonyl)azetidin-1-ium 2,2,2-trifluoroacetate] | 25 µM | 15.99 | 612 pM | 6.25 µM | 6.25 µM | 3.125 µM | 1.563 µM | – | – | – |
| Nc1nc2ccc(-c3ccc(S(=O)(=O)C4CCNCC4)c(S(N)(=O)=O)c3-c3nn[nH]n3)cc2[nH]1 [Example 41, 3-(2-amino-3H-benzo[d]imidazol-5-yl)-6-(piperidin-4-ylsulfonyl)-2-(2H-tetrazol-5-yl)benzenesulfonamide] | 3.125 µM | 4.00 | 171 pM | 1.563 µM | 1.563 µM | 1.563 µM | 0.7813 µM | – | – | – |
| NS(=O)(=O)c1c(S(=O)(=O)C2CNC2)ccc(-c2ccc(O)nc2)c1-c1nnn[nH]1.O=C(O)C(F)(F)F [Example 109, 3-((4-(6-hydroxypyridin-3-yl)-2-sulfamoyl-3-(1H-tetrazol-5-yl)phenyl)sulfonyl)azetidin-1-ium 2,2,2-trifluoroacetate] | 12.5 µM | 8.00 | 1440 pM | 3.125 µM | 0.7813 µM | 1.563 µM | 1.563 µM | – | – | – |
| Nc1cnccc1-c1ccc(S(=O)(=O)C2CNC2)c(S(N)(=O)=O)c1-c1nnn[nH]1.O=C(O)C(F)(F)F [Example 105, 3-((4-(3-aminopyridin-4-yl)-2-sulfamoyl-3-(1H-tetrazol-5-yl)phenyl)sulfonyl)azetidin-1-ium 2,2,2-trifluoroacetate] | 3.125 µM | 2.00 | 759 pM | 3.125 µM | 3.125 µM | 1.563 µM | 1.563 µM | – | – | – |
| Nc1nc2cc(F)cc(-c3ccc(S(=O)(=O)C4CNC4)c(S(N)(=O)=O)c3-c3nnn[nH]3)c2[nH]1 [Example 296, 3-(2-amino-5-fluoro-1H-benzo[d]imidazol-7-yl)-6-(azetidin-3-ylsulfonyl)-2-(1H-tetrazol-5-yl)benzenesulfonamide] | 0.7813 µM | 1.00 | 227 pM | – | – | – | 0.7813 µM | 1.172 µM | 0.5859 µM | 0.7813 µM |
| CNc1ncc(-c2ccc(S(=O)(=O)C3CNC3)c(S(N)(=O)=O)c2-c2nnn[nH]2)cn1.O=C(O)C(F)(F)F [Example 106, 3-((4-(2-(methylamino)pyrimidin-5-yl)-2-sulfamoyl-3-(1H-tetrazol-5-yl)phenyl)sulfonyl)azetidin-1-ium 2,2,2-trifluoroacetate] | 6.25 µM | 4.00 | 1590 pM | 6.25 µM | 12.5 µM | 3.125 µM | 1.563 µM | – | – | – |
| Nc1nc2nccc(-c3ccc(S(=O)(=O)C4CNC4)c(S(N)(=O)=O)c3-c3nnn[nH]3)c2[nH]1 [Example 302] | 200 µM | 16.00 | 9990 pM | – | – | – | 12.5 µM | 6.25 µM | 3.125 µM | 12.5 µM |
| NC[C@@H](O)CS(=O)(=O)c1ccc(-c2cccnc2N)c(-c2nn[nH]n2)c1S(N)(=O)=O [Example 367, (R)-6-((3-amino-2-hydroxypropyl)sulfonyl)-3-(2-aminopyridin-3-yl)-2-(2H-tetrazol-5-yl) benzenesulfonamide] | 1.563 µM | 1.00 | 703 pM | – | – | – | 1.563 µM | 1.563 µM | 0.1953 µM | 0.7813 µM |
| NC[C@H](O)CS(=O)(=O)c1ccc(-c2cccnc2N)c(-c2nn[nH]n2)c1S(N)(=O)=O [Example 368, (S)-6-((3-amino-2-hydroxypropyl)sulfonyl)-3-(2-aminopyridin-3-yl)-2-(2H-tetrazol-5-yl) benzenesulfonamide] | 1.563 µM | 1.33 | 561 pM | – | – | – | 1.172 µM | 2.344 µM | 0.1953 µM | 0.7813 µM |
